EP0491828B1, “PEPTIDES FROM GTPase-ACTIVATING PROTEIN (GAP), DIAGNOSTIC AND THERAPEUTIC USE THEREOF” (CHIRON CORPORATION, priority 1989, dated 1999)

Experiments:
ras p21 protein [1] = test: GDP/GTP ratio assay of p21-GTP hydrolysis (alpha-32-P-GTP, PEI cellulose chromatography), with and without GAP; assay type: biochemical; settings: in the presence of GAP; control peptide, no concentration stated
Description: Another experiment comparing the efficacy of cGAP 13 and peptide 891 in preventing the hydrolysis of GTP was carried out as follows. The assay measured the ratio of GDP formed resulting from the hydrolysis of GTP to the remaining GTP in the assay solution. Peptides 891, cGAP 13, and G65 were separately tested in the presence and absence of GAP, Peptide G65, which served as a control, and α-32-P-GTP were used.
The assay was carried out as follows. The p21-GTP was diluted at a ratio of 1 to 10 in an assay buffer consisting of TNM at pH 7.0, 1mM DTT, and 100 µM GTP. A mixture consisting of 20 λ of p21 at 0.25 µM, and 2 λ of the peptide (in TNM, 1mM DTT and 100 µM GTP) was prepared. To this mixture was added 5 λ, i.e. 12ng of GAP diluted in TNM and 1 mg/ml BSA; for experiments without GAP, 5λ TNM/BSA were added instead. The resulting mixture was incubated for 30 minutes at room temperature. The reaction was stopped and the nucleotides were eluted from ras p21 protein with 2% SDS, 40 mM EDTA at 65°C for 5 minutes. The nucleotides were chromatographed on PEI Cellulose in 1M LiCl. GTP and GDP spots were visualized with autoradiography and identified by means of standard solutions. The individual spots from the PEI cellulose plates were scraped and the radioactivity counted.

ras p21 protein [2] = test: Filter assay of GTP hydrolysis by ras p21 protein (32-P gamma-GTP), with and without GAP; assay type: biochemical; settings: in the presence and absence of GAP; 30 minutes at room temperature
Description: The above four peptides, in the following two experiments, were tested for their abilities to inhibit the hydrolysis of GTP by ras p21 protein, in the presence and absence of GAP. The first experiment involved peptides G65, G73 and 891. It was carried out as follows: purified wild type ras p21 protein was incubated with 0.25 µM 32-P gamma-GTP in 100 mM NaPO4, pH 6.8, 0.5 mM DTT, 0.5 mM EDTA, 0.005% Na cholate, and 0.5 mg/ml BSA for 15 minutes at 30°C. The mixture was then diluted ten fold with TNM buffer (comprising 20 mM Tris-HCl, pH 7.0, 100 mM NaCl, 5 mM MgCl2). 20 µl (0.05 µg of p21) of this mixture was then combined with 2 µl of the peptide in 25 mM NaOAc, pH 5.5 and incubated for 5 minutes at room temperature. The GAP assay, was initiated by the addition of 12 ng GAP in 5 µl TNM buffer with 1 mg/ml BSA or 5 µl TNM BSA buffer for the GAP independent reactions, and the resulting mixture was incubated for 30 minutes at room temperature. The samples were then filtered through nitrocellulose membranes and washed three times with cold TNM. The filters were dried and their radioactivity counted. […] In the presence of GAP, the radioactive ras p21-GTP complex is hydrolyzed to GDP and ras p21 protein, thus reducing the resulting amount of radioactive p21-GTP bound to the filter and consequently, the radioactive counts detected. […]

| Substance | hydrolysis of p21-GTP (ratio of radioactive counts of GDP over GTP) (ras p21 protein [1]) | hydrolysis of GTP by ras p21 protein (radioactive counts per minute of ras p21-GTP complex on filter) (ras p21 protein [2]) |
| --- | --- | --- |
| peptide G65: synthetic peptide corresponding to positions 876-890 of the full length GAP; served as a control (CLQKSVQHKWPTNTT; UniProt P20936 876-890, looked up, fragment) | exhibits no inhibitory effect on p21-GTP hydrolysis | do not affect the hydrolysis of GTP |
| peptide G73: synthetic peptide corresponding to positions 975-990 of the full length GAP (GNVPELPDTTEHSRTD; UniProt P20936 975-990, looked up, fragment) |  | do not affect the hydrolysis of GTP |
